According to patent US6960574B2, “Antagonists of RF-amide neuropeptides” (University of Florida, priority 2002, dated 2005):
Peptide text beside a SMILES is read from it. * marks the point of attachment. Dansyl = CN(C)c1cccc2c(S(=O)(=O)*)cccc12

Test system: receptor labeled by the radioiodinated analogue of 1 (4, [125I]-YLFQPQRF-NH2); neuropeptide FF receptor
Experiment: Competitive radioligand binding against 4 ([125I]Y8F-amide)
Details: mixture-based positional scanning; difference from averaged radioligand displacement of whole library (0); about 80 a.u. = 10-fold change in Ki

Row | Compound | Relative Binding Index (RBI) [a.u.]
1 | CN(C)c1cccc2c(S(=O)(=O)N[C@@H](CC(N)=O)C(=O)N[C@@H](CC(N)=O)C(=O)N[C@@H](CCCNC(=N)N)C(N)=O)cccc12 [Dansyl-NNR-amide] (Dansyl-Asn-Asn-Arg-NH2) | 14
2 | CN(C)c1cccc2c(S(=O)(=O)N[C@@H](CO)C(=O)N[C@@H](CCC(=O)O)C(=O)N[C@@H](CCCNC(=N)N)C(N)=O)cccc12 [Dansyl-SER-amide] (Dansyl-Ser-Glu-Arg-NH2) | 16
3 | CN(C)c1cccc2c(S(=O)(=O)N[C@@H](CC(=O)O)C(=O)N[C@@H](Cc3c[nH]c4ccccc34)C(=O)N[C@@H](CCCNC(=N)N)C(N)=O)cccc12 [Dansyl-DWR-amide] (Dansyl-Asp-Trp-Arg-NH2) | 3
4 | C[C@H](NC(=O)[C@H](C)NS(=O)(=O)c1cccc2c(N(C)C)cccc12)C(=O)N[C@@H](CCCNC(=N)N)C(N)=O [Dansyl-AAR-amide] (Dansyl-Ala-Ala-Arg-NH2) | −37
5 | CC(C)[C@H](NC(=O)[C@H](CC(N)=O)NS(=O)(=O)c1cccc2c(N(C)C)cccc12)C(=O)N[C@@H](CCCNC(=N)N)C(N)=O [Dansyl-NVR-amide] (Dansyl-Asn-Val-Arg-NH2) | 8
6 | CSCC[C@H](NS(=O)(=O)c1cccc2c(N(C)C)cccc12)C(=O)N[C@@H](C)C(=O)N[C@@H](CCCNC(=N)N)C(N)=O [Dansyl-MAR-amide] (Dansyl-Met-Ala-Arg-NH2) | −93
7 | CC(C)[C@H](NS(=O)(=O)c1cccc2c(N(C)C)cccc12)C(=O)N[C@@H](CC(=O)O)C(=O)N[C@@H](CCCNC(=N)N)C(N)=O [Dansyl-VDR-amide] (Dansyl-Val-Asp-Arg-NH2) | −22
8 | CC(O)C(NC(=O)C(CCC(=O)O)NS(=O)(=O)c1cccc2c(N(C)C)cccc12)C(=O)NC(CCCNC(=N)N)C(N)=O (stereo not drawn) [Dansyl-ETR-amide] (Dansyl-Glu-Thr-Arg-NH2; configuration not given here) | 22
9 | C[C@@H](O)[C@H](NC(=O)[C@@H](NS(=O)(=O)c1cccc2c(N(C)C)cccc12)[C@@H](C)O)C(=O)N[C@@H](CCCNC(=N)N)C(N)=O [Dansyl-TTR-amide] (Dansyl-Thr-Thr-Arg-NH2) | −3
10 | CC(C)C[C@H](NS(=O)(=O)c1cccc2c(N(C)C)cccc12)C(=O)N[C@@H](CC(=O)O)C(=O)N[C@@H](CCCNC(=N)N)C(N)=O [Dansyl-LDR-amide] (Dansyl-Leu-Asp-Arg-NH2) | −50
11 | C[C@@H](O)[C@H](NS(=O)(=O)c1cccc2c(N(C)C)cccc12)C(=O)N[C@@H](CC(=O)O)C(=O)N[C@@H](CCCNC(=N)N)C(N)=O [Dansyl-TDR-amide] (Dansyl-Thr-Asp-Arg-NH2) | −27
12 | CC[C@H](C)[C@H](NC(=O)[C@H](CCC(N)=O)NS(=O)(=O)c1cccc2c(N(C)C)cccc12)C(=O)N[C@@H](CCCNC(=N)N)C(N)=O [Dansyl-QIR-amide] (Dansyl-Gln-Ile-Arg-NH2) | 28
13 | CN(C)c1cccc2c(S(=O)(=O)N[C@@H](Cc3c[nH]c4ccccc34)C(=O)N[C@@H](Cc3ccc(O)cc3)C(=O)N[C@@H](CCCNC(=N)N)C(N)=O)cccc12 [Dansyl-WYR-amide] (Dansyl-Trp-Tyr-Arg-NH2) | 7
14 | CC(C)[C@H](NC(=O)[C@@H]1CCCN1S(=O)(=O)c1cccc2c(N(C)C)cccc12)C(=O)N[C@@H](CCCNC(=N)N)C(N)=O [Dansyl-PVR-amide] (Dansyl-Pro-Val-Arg-NH2) | −53
15 | CN(C)c1cccc2c(S(=O)(=O)N[C@@H](CCC(=O)O)C(=O)N[C@@H](CCC(N)=O)C(=O)N[C@@H](CCCNC(=N)N)C(N)=O)cccc12 [Dansyl-EQR-amide] (Dansyl-Glu-Gln-Arg-NH2) | 30
16 | C[C@H](NC(=O)[C@H](CO)NS(=O)(=O)c1cccc2c(N(C)C)cccc12)C(=O)N[C@@H](CCCNC(=N)N)C(N)=O [Dansyl-SAR-amide] (Dansyl-Ser-Ala-Arg-NH2) | −33
17 | CC(C)[C@H](NS(=O)(=O)c1cccc2c(N(C)C)cccc12)C(=O)N[C@H](C(=O)N[C@@H](CCCNC(=N)N)C(N)=O)[C@@H](C)O [Dansyl-VTR-amide] (Dansyl-Val-Thr-Arg-NH2) | 1
18 | CC[C@H](C)[C@H](NC(=O)[C@H](Cc1c[nH]cn1)NS(=O)(=O)c1cccc2c(N(C)C)cccc12)C(=O)N[C@@H](CCCNC(=N)N)C(N)=O [Dansyl-HIR-amide] (Dansyl-His-Ile-Arg-NH2) | 23
19 | CN(C)c1cccc2c(S(=O)(=O)N[C@@H](CO)C(=O)N[C@@H](CC(=O)O)C(=O)N[C@@H](CCCNC(=N)N)C(N)=O)cccc12 [Dansyl-SDR-amide] (Dansyl-Ser-Asp-Arg-NH2) | −2

Row | Compound | Relative Binding Index (RBI) [a.u.]
20 | C[C@H](NS(=O)(=O)c1cccc2c(N(C)C)cccc12)C(=O)N[C@@H](Cc1ccc(O)cc1)C(=O)N[C@@H](CCCNC(=N)N)C(N)=O [Dansyl-AYR-amide] (Dansyl-Ala-Tyr-Arg-NH2) | 11
21 | CN(C)c1cccc2c(S(=O)(=O)N[C@@H](CCC(N)=O)C(=O)N[C@@H](Cc3ccc(O)cc3)C(=O)N[C@@H](CCCNC(=N)N)C(N)=O)cccc12 [Dansyl-QYR-amide] (Dansyl-Gln-Tyr-Arg-NH2) | 20
22 | CN(C)c1cccc2c(S(=O)(=O)N[C@@H](CCC(=O)O)C(=O)N[C@@H](CCCNC(=N)N)C(=O)N[C@@H](CCCNC(=N)N)C(N)=O)cccc12 [Dansyl-ERR-amide] (Dansyl-Glu-Arg-Arg-NH2) | 15
23 | CN(C)c1cccc2c(S(=O)(=O)N[C@@H](Cc3ccc(O)cc3)C(=O)N[C@@H](Cc3c[nH]c4ccccc34)C(=O)N[C@@H](CCCNC(=N)N)C(N)=O)cccc12 [Dansyl-YWR-amide] (Dansyl-Tyr-Trp-Arg-NH2) | 16
24 | C[C@H](NC(=O)CNS(=O)(=O)c1cccc2c(N(C)C)cccc12)C(=O)N[C@@H](CCCNC(=N)N)C(N)=O [Dansyl-GAR-amide] (Dansyl-Gly-Ala-Arg-NH2) | −24
25 | C[C@H](NS(=O)(=O)c1cccc2c(N(C)C)cccc12)C(=O)N[C@@H](CCC(N)=O)C(=O)N[C@@H](CCCNC(=N)N)C(N)=O [Dansyl-AQR-amide] (Dansyl-Ala-Gln-Arg-NH2) | 26
26 | CC(C)[C@H](NS(=O)(=O)c1cccc2c(N(C)C)cccc12)C(=O)N1CCC[C@H]1C(=O)N[C@@H](CCCNC(=N)N)C(N)=O [Dansyl-VPR-amide] (Dansyl-Val-Pro-Arg-NH2) | −1
27 | CN(C)c1cccc2c(S(=O)(=O)N[C@@H](CC(=O)O)C(=O)N3CCC[C@H]3C(=O)N[C@@H](CCCNC(=N)N)C(N)=O)cccc12 [Dansyl-DPR-amide] (Dansyl-Asp-Pro-Arg-NH2) | −2
28 | CN(C)c1cccc2c(S(=O)(=O)N[C@@H](Cc3ccccc3)C(=O)N[C@@H](CC(N)=O)C(=O)N[C@@H](CCCNC(=N)N)C(N)=O)cccc12 [Dansyl-FNR-amide] (Dansyl-Phe-Asn-Arg-NH2) | 11
29 | CSCC[C@H](NS(=O)(=O)c1cccc2c(N(C)C)cccc12)C(=O)N[C@@H](CCCNC(=N)N)C(=O)N[C@@H](CCCNC(=N)N)C(N)=O [Dansyl-MRR-amide] (Dansyl-Met-Arg-Arg-NH2) | −45
30 | CN(C)c1cccc2c(S(=O)(=O)N[C@@H](Cc3c[nH]cn3)C(=O)N[C@@H](CC(=O)O)C(=O)N[C@@H](CCCNC(=N)N)C(N)=O)cccc12 [Dansyl-HDR-amide] (Dansyl-His-Asp-Arg-NH2) | −1
31 | CN(C)c1cccc2c(S(=O)(=O)N[C@@H](CCC(N)=O)C(=O)N[C@@H](CCC(=O)O)C(=O)N[C@@H](CCCNC(=N)N)C(N)=O)cccc12 [Dansyl-QER-amide] (Dansyl-Gln-Glu-Arg-NH2) | 22
32 | CN(C)c1cccc2c(S(=O)(=O)N[C@@H](CCC(N)=O)C(=O)N[C@@H](Cc3ccccc3)C(=O)N[C@@H](CCCNC(=N)N)C(N)=O)cccc12 [Dansyl-QFR-amide] | 20
33 | CN(C)c1cccc2c(S(=O)(=O)N[C@@H](Cc3ccccc3)C(=O)N3CCC[C@H]3C(=O)N[C@@H](CCCNC(=N)N)C(N)=O)cccc12 [Dansyl-FPR-amide] | 13
34 | C[C@H](NC(=O)[C@H](CCC(N)=O)NS(=O)(=O)c1cccc2c(N(C)C)cccc12)C(=O)N[C@@H](CCCNC(=N)N)C(N)=O [Dansyl-QAR-amide] (Dansyl-Gln-Ala-Arg-NH2) | −28
35 | CC(C)C[C@H](NC(=O)[C@@H]1CCCN1S(=O)(=O)c1cccc2c(N(C)C)cccc12)C(=O)N[C@@H](CCCNC(=N)N)C(N)=O [Dansyl-PLR-amide] (Dansyl-Pro-Leu-Arg-NH2) | −56
36 | CN(C)c1cccc2c(S(=O)(=O)N[C@@H](Cc3c[nH]c4ccccc34)C(=O)NCC(=O)N[C@@H](CCCNC(=N)N)C(N)=O)cccc12 [Dansyl-WGR-amide] (Dansyl-Trp-Gly-Arg-NH2) | 14
37 | CCC(C)C(NS(=O)(=O)c1cccc2c(N(C)C)cccc12)C(=O)NC(CCCCN)C(=O)NC(CCCNC(=N)N)C(N)=O (stereo not drawn) [Dansyl-IKR-amide] (Dansyl-Ile-Lys-Arg-NH2; configuration not given here) | −13
38 | CN(C)c1cccc2c(S(=O)(=O)N[C@@H](Cc3cnc[nH]3)C(=O)N3CCC[C@H]3C(=O)N[C@@H](CCCNC(=N)N)C(N)=O)cccc12 [Dansyl-HPR-amide] (Dansyl-His-Pro-Arg-NH2) | 20
